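Cells were grown in 96-well plates and exposed to each compound for 48 hours at five concentrations; endpoints were interpolated linearly between bracketing concentrations, or set to the highest concentration if not reached. GI50 marks 50% less growth. TGI: concentration producing complete growth inhibition.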
Columns and labels:
Test in all cases: NCI-60 cell line screen, 48 h
[1] = system: A498 renal
[2] = system: NCI-H226 lung
[3] = system: T-47D breast
[4] = system: HCT-15 colon
[5] = system: UACC-62 melanoma
[6] = system: UO-31 renal
[7] = system: SF-268 CNS
[8] = system: COLO 205 colon
[9] = system: OVCAR-3 ovarian
[10] = system: RPMI-8226 leukemia
[11] = system: NCI-H23 lung
[12] = system: HT29 colon
[13] = system: SK-MEL-5 melanoma
[14] = system: EKVX NSCLC
[15] = system: DU-145 prostate
[16] = system: CCRF-CEM leukemia
[17] = system: M14 melanoma
[18] = system: BT-549 breast
[19] = system: SK-OV-3 ovarian
[20] = system: SNB-75 CNS
[21] = system: TK-10 renal
[22] = system: SK-MEL-2 melanoma
[23] = system: HL-60(TB) leukemia
[24] = system: LOX IMVI melanoma
[25] = system: HCC-2998 colon
[26] = system: OVCAR-8 ovarian
[27] = system: NCI-H460 lung
[28] = system: ACHN renal
[29] = system: SR leukemia
[30] = system: 786-0 renal
[31] = system: SW-620 colon
[32] = system: K-562 leukemia
[33] = system: PC-3 prostate
[34] = system: HS 578T breast
[35] = system: OVCAR-4 ovarian
[36] = system: SF-539 CNS
[37] = system: UACC-257 melanoma
[38] = system: NCI-H522 lung
[39] = system: MOLT-4 leukemia
[40] = system: KM12 colon
[41] = system: MDA-MB-231 breast
[42] = system: HOP-92 NSCLC
[43] = system: MCF7 breast
[44] = system: MALME-3M melanoma
[45] = system: HOP-62 NSCLC
[46] = system: HCT-116 colon
[47] = system: SN12C renal
[48] = system: SNB-19 CNS
[49] = system: MDA-MB-435
[50] = system: IGROV1 ovarian
[51] = system: RXF 393 renal
[52] = system: NCI/ADR-RES ovarian
[53] = system: U251 CNS
[54] = system: SK-MEL-28 melanoma
[55] = system: SF-295 CNS
[56] = system: OVCAR-5 ovarian
[57] = system: A549 NSCLC

Structure (SMILES): COc1ccc(-c2cc(C(=O)N3N=C(c4ccc(N)cc4)CC3c3ccc(Cl)cc3)c3ccccc3n2)cc1 (centres undefined)
- GI50 [1]: 375 nM
- TGI [1]: 914 nM
- GI50 [2]: 7.54 µM
- TGI [2]: > 100 µM
- GI50 [3]: 2710 nM
- TGI [3]: > 100 µM
- GI50 [4]: 1030 nM
- TGI [4]: > 100 µM
- GI50 [5]: 556 nM
- TGI [5]: > 100 µM
- GI50 [6]: 1550 nM
- TGI [6]: > 100 µM
- GI50 [7]: 2190 nM
- TGI [7]: > 100 µM
- GI50 [8]: 1990 nM
- TGI [8]: 6.58 µM
- GI50 [9]: 462 nM
- TGI [9]: 8.55 µM
- GI50 [10]: 3.86 µM
- TGI [10]: > 100 µM
- GI50 [11]: 3.14 µM
- TGI [11]: > 100 µM
- GI50 [12]: 1130 nM
- TGI [12]: > 100 µM
- GI50 [13]: 701 nM
- TGI [13]: 9.25 µM
- GI50 [14]: 3.78 µM
- TGI [14]: > 100 µM
- GI50 [15]: 3.16 µM
- TGI [15]: > 100 µM
- GI50 [16]: 5.84 µM
- TGI [16]: > 100 µM
- GI50 [17]: 1160 nM
- TGI [17]: > 100 µM
- GI50 [18]: 2040 nM
- TGI [18]: 73 µM
- GI50 [19]: 3.32 µM
- TGI [19]: > 100 µM
- GI50 [20]: 371 nM
- TGI [20]: 8.66 µM
- GI50 [21]: 52.3 µM
- TGI [21]: > 100 µM
- GI50 [22]: 2030 nM
- TGI [22]: > 100 µM
- GI50 [23]: 2540 nM
- TGI [23]: > 100 µM
- GI50 [24]: 1560 nM
- TGI [24]: > 100 µM
- GI50 [25]: 3.4 µM
- TGI [25]: > 100 µM
- GI50 [26]: 4.16 µM
- TGI [26]: > 100 µM
- GI50 [27]: 1890 nM
- TGI [27]: > 100 µM
- GI50 [28]: 1470 nM
- TGI [28]: > 100 µM
- GI50 [29]: 595 nM
- TGI [29]: > 100 µM
- GI50 [30]: 1840 nM
- TGI [30]: > 100 µM
- GI50 [31]: 1240 nM
- TGI [31]: > 100 µM
- GI50 [32]: 1050 nM
- TGI [32]: > 100 µM
- GI50 [33]: 2030 nM
- TGI [33]: > 100 µM
- GI50 [34]: 1050 nM
- TGI [34]: > 100 µM
- GI50 [35]: 1820 nM
- TGI [35]: > 100 µM
- GI50 [36]: 1410 nM
- TGI [36]: > 100 µM
- GI50 [37]: > 100 µM
- TGI [37]: > 100 µM
- GI50 [38]: 307 nM
- TGI [38]: 1800 nM
- GI50 [39]: 3.3 µM
- TGI [39]: > 100 µM
- GI50 [40]: 1150 nM
- TGI [40]: > 100 µM
- GI50 [41]: 3.28 µM
- TGI [41]: > 100 µM
- GI50 [42]: 1920 nM
- TGI [42]: > 100 µM
- GI50 [43]: 442 nM
- TGI [43]: > 100 µM
- GI50 [44]: > 100 µM
- TGI [44]: > 100 µM
- GI50 [45]: 3.21 µM
- TGI [45]: > 100 µM
- GI50 [46]: 1410 nM
- TGI [46]: > 100 µM
- GI50 [47]: 4.27 µM
- TGI [47]: > 100 µM
- GI50 [48]: 5.54 µM
- TGI [48]: > 100 µM
- GI50 [49]: 305 nM
- TGI [49]: 2220 nM
- GI50 [50]: 4.98 µM
- TGI [50]: > 100 µM
- GI50 [51]: 698 nM
- TGI [51]: 8.22 µM
- GI50 [52]: 519 nM
- TGI [52]: > 100 µM
- GI50 [53]: 2180 nM
- TGI [53]: > 100 µM
- GI50 [54]: 3.78 µM
- TGI [54]: > 100 µM
- GI50 [55]: 540 nM
- TGI [55]: > 100 µM
- GI50 [56]: 5.51 µM
- TGI [56]: > 100 µM
- GI50 [57]: 2330 nM
- TGI [57]: > 100 µM

— PubChem BioAssay (NCI)
